Assay results: ChEMBL document CHEMBL1201862, “PubChem BioAssay data set” (2004)
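Following 48 hours of exposure in 96-well plates, responses at five concentrations were used to interpolate endpoints linearly. At the GI50, growth is halved.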 Active and inactive are the calls of the source. Cut-off read from the data, not from the text of the source: active = GI50 up to about 1.1 µM and inactive = higher.

Assays:
Assay in all cases: NCI tumour cell line growth inhibition, 48 h
786-0 = tested on: 786-0
CAKI-1 = tested on: CAKI-1
COLO 205 = tested on: COLO 205
HOP-62 = tested on: HOP-62
IGROV-1 = tested on: IGROV-1
LOX IMVI = tested on: LOX IMVI
M14 = tested on: M14
MOLT-4 = tested on: MOLT-4
NCI-H23 = tested on: NCI-H23
NCI-H522 = tested on: NCI-H522
OVCAR-3 = tested on: OVCAR-3
OVCAR-5 = tested on: OVCAR-5
SF-295 = tested on: SF-295
SK-MEL-28 = tested on: SK-MEL-28
SW-620 = tested on: SW-620
UACC-62 = tested on: UACC-62
UO-31 = tested on: UO-31
CCRF-CEM = tested on: CCRF-CEM

Measured: GI50

CN(C)CCNCCN
inactive: 786-0 > 100 µM | CAKI-1 > 100 µM | COLO 205 > 100 µM | HOP-62 > 100 µM | IGROV-1 > 100 µM | LOX IMVI > 100 µM | M14 > 100 µM | MOLT-4 > 100 µM | NCI-H23 > 100 µM | NCI-H522 > 100 µM | OVCAR-3 > 100 µM | OVCAR-5 > 100 µM | SF-295 > 100 µM | SK-MEL-28 > 100 µM | SW-620 > 100 µM | UACC-62 > 100 µM | UO-31 > 100 µM

O=c1[nH]nc(Cc2ccccc2)n1O
inactive: 786-0 > 100 µM | CAKI-1 > 100 µM | CCRF-CEM > 100 µM | COLO 205 > 100 µM | HOP-62 > 100 µM | IGROV-1 > 100 µM | LOX IMVI > 100 µM | MOLT-4 > 100 µM | NCI-H23 > 100 µM | NCI-H522 > 100 µM | OVCAR-3 > 100 µM | SF-295 > 100 µM | SK-MEL-28 > 100 µM | SW-620 > 100 µM | UACC-62 > 100 µM | UO-31 > 100 µM

CCC1=C(CC)C1(C#N)[N+](=O)[O-]
inactive: 786-0 > 100 µM | CAKI-1 > 100 µM | CCRF-CEM > 100 µM | COLO 205 > 100 µM | HOP-62 > 100 µM | IGROV-1 > 100 µM | LOX IMVI > 100 µM | M14 > 100 µM | MOLT-4 > 100 µM | NCI-H23 > 100 µM | NCI-H522 > 100 µM | OVCAR-3 > 100 µM | OVCAR-5 > 100 µM | SF-295 > 100 µM | SW-620 > 100 µM | UACC-62 > 100 µM | UO-31 > 100 µM

CC(C)c1ccc(Cc2ccc(C(C)C)c(NC(=O)C(=O)Cc3cnc4ccccc4n3)c2C(C)C)c(C(C)C)c1NC(=O)C(=O)Cc1cnc2ccccc2n1
inactive: 786-0 > 100 µM | CAKI-1 98.9 µM | CCRF-CEM > 100 µM | COLO 205 > 100 µM | HOP-62 > 100 µM | IGROV-1 > 100 µM | LOX IMVI > 100 µM | M14 > 100 µM | MOLT-4 > 100 µM | OVCAR-3 > 100 µM | OVCAR-5 > 100 µM | SF-295 > 100 µM | SW-620 > 100 µM | UACC-62 > 100 µM | UO-31 53 µM

N#CC(C(=O)CCC(=O)Nc1cccc(C(F)(F)F)c1)c1ccc(Cl)cc1 (configuration not stated)
inactive: 786-0 > 100 µM | CAKI-1 > 100 µM | CCRF-CEM > 100 µM | COLO 205 > 100 µM | HOP-62 > 100 µM | IGROV-1 > 100 µM | LOX IMVI > 100 µM | M14 > 100 µM | MOLT-4 > 100 µM | NCI-H23 > 100 µM | NCI-H522 > 100 µM | OVCAR-3 > 100 µM | OVCAR-5 > 100 µM | SF-295 > 100 µM | SW-620 > 100 µM | UACC-62 > 100 µM | UO-31 > 100 µM
